Measurements: ChEMBL document CHEMBL1123366, “Antiinflammatory and aldose reductase inhibitory activity of some tricyclic arylacetic acids” (J Med Chem, 1986)

Key:
Mus musculus = species: Mus musculus; assay: Analgesic activity in mice by mouse phenylquinone writhing assay relative to aspirin.; assay type: functional
Rattus norvegicus = species: Rattus norvegicus; assay: Inhibition of carrageenan-induced inflammation of rat paw relative to phenylbutazone.; assay type: functional

SMILES | Activity (Mus musculus) | Activity (Rattus norvegicus)
CC(C(=O)O)c1ccc2c(=O)c3ccccc3ccc2c1 (centres undefined) | 20 | 68
O=C1Cc2ccc3c(c2O1)CCc1ccccc1C3=O | ~1 | 3
O=C(O)Cc1cc(O)c2c(c1)CCc1ccccc1C2=O | 4 | ~20
O=C(O)Cc1ccc2c(c1)CCc1cccc(O)c1C2=O | >=0.4 | <0.2
O=C(O)Cc1ccc2c(c1)CCc1ccc(O)cc1C2=O | ~0.2 | <0.2
O=C(O)Cc1ccc2c(c1)CCc1ccccc1C2=O | 1.5 | 7
O=C(O)Cc1ccc2c(c1O)CCc1ccccc1C2=O | ~8 | 15
O=C(O)Cc1ccc2c(c1)CCc1cc(O)ccc1C2=O | ~0.6 | ~0.4
CC(C(=O)O)c1cc(O)c2c(=O)c3ccccc3ccc2c1 (centres undefined) | ~6 | ~30
O=C(O)Cc1cc(O)c2c(=O)c3ccccc3ccc2c1 | ~1 | 5
O=C(O)Cc1ccc2c(=O)c3ccccc3ccc2c1 | 2 | 6
CC(C(=O)O)c1cc(O)c2c(c1)CCc1ccccc1C2=O (centres undefined) | 4 | ~60
O=C(O)c1ccccc1Nc1cccc(C(F)(F)F)c1 [FLUFENAMIC ACID] | <0.4 | ~6
COc1ccc2c(c1)c(CC(=O)O)c(C)n2C(=O)c1ccc(Cl)cc1 [INDOMETHACIN] | 60 | 16
CC(C(=O)O)c1cccc(C(=O)c2ccccc2)c1 (centres undefined) [KETOPROFEN] | 60 | 9
O=C(O)Cc1ccc2c(c1)OCc1ccccc1C2=O [OXEPINAC] | 4 | ~15
O=C(O)Cc1ccc2c(c1)SCc1ccccc1C2=O [TIOPINAC] | 14 | 40
